Source: ChEMBL document CHEMBL5500413, “Discovery of Novel Receptor Tyrosine Kinase-like Orphan Receptor 1 (ROR1) Inhibitors for Cancer Treatment” (J Med Chem, 2024)

What was measured:
[1] = molecular target: Inactive tyrosine-protein kinase transmembrane receptor ROR1 (Homo sapiens, UniProt Q01973); assay: Binding affinity to ROR1 kinase domain (453 to 783 residues) (unknown origin) assessed as dissociation constant by SPR analysis
MDA-MB-231 = assay: Antiproliferative activity against human MDA-MB-231 cells harboring high ROR1 expression assessed as inhibition of cell growth incubated for 72 hrs by MTT assay; assay type: functional, cell-based; conditions: MDA-MB-231, 72 h
NCI-H1975 = assay: Antiproliferative activity against human NCI-H1975 cells harboring high ROR1 expression assessed as inhibition of cell growth incubated for 72 hrs by MTT assay; assay type: functional, cell-based; conditions: NCI-H1975, 72 h
A549 = assay: Antiproliferative activity against human A549 cells harboring high ROR1 expression assessed as inhibition of cell growth incubated for 72 hrs by MTT assay; assay type: functional, cell-based; conditions: A549, 72 h

Chain of Inactive tyrosine-protein kinase transmembrane receptor ROR1 (Q01973 whole entry, the tested form may be a part): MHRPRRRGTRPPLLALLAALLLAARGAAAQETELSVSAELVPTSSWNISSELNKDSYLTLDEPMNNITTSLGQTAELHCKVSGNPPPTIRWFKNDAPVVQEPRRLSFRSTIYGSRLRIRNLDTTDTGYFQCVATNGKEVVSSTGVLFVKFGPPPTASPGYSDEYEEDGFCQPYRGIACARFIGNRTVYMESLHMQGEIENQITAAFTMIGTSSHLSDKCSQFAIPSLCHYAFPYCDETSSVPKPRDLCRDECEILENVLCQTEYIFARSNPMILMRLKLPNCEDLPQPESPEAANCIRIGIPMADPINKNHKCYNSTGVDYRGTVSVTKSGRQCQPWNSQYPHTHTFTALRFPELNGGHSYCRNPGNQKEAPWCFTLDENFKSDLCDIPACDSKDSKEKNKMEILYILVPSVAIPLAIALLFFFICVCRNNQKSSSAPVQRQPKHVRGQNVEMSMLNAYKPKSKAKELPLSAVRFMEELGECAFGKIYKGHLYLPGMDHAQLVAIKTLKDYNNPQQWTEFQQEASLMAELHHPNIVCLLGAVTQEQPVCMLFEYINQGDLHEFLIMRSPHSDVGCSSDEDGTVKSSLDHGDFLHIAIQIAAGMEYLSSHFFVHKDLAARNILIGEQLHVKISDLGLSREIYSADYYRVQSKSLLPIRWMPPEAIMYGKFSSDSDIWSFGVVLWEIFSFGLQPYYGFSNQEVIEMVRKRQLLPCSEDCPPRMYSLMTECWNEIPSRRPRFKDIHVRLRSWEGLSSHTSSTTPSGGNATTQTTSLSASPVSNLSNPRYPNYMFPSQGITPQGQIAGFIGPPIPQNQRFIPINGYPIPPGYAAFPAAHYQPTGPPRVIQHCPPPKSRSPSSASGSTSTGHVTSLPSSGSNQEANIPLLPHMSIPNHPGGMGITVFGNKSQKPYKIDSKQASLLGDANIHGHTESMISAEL

Kd [1]: 8.25 µM
IC50 (MDA-MB-231): 31.3 µM
IC50 (NCI-H1975): 66.7 µM
IC50 (A549): 27.5 µM
SMILES: Cc1ccc(C(=O)Nc2cccc(N(C)C)c2)cc1C#Cc1cnc2cccnn12
